Assay: xn = mol fraction of the nth substance listed
Conditions: Liquid, Vibrating tube method

CCCCCCCCCC [decane] + CCCO
mass density [kg/m3]
Conditions	313.15 K	323.15 K
100 kPa, x2 = 0.1391	716.51	707.51
100 kPa, x2 = 0.1907	717.9	709.03
100 kPa, x2 = 0.3001	721.57	712.69
100 kPa, x2 = 0.4326	726.91	717.73
100 kPa, x2 = 0.6863	743.48	734.39
100 kPa, x2 = 0.8711	764.1	755.13
1000 kPa, x2 = 0.1907	–	709.9
1000 kPa, x2 = 0.3001	723.23	–
1000 kPa, x2 = 0.4326	728.22	–
1000 kPa, x2 = 0.6863	–	735.11
1010 kPa, x2 = 0.1391	–	708.44
1010 kPa, x2 = 0.1907	718.96	–
1010 kPa, x2 = 0.3001	–	713.84
1010 kPa, x2 = 0.4326	–	718.54
1010 kPa, x2 = 0.6863	744.97	–
1010 kPa, x2 = 0.8711	765.33	–
1020 kPa, x2 = 0.1391	717.29	–
1020 kPa, x2 = 0.8711	–	755.79
2000 kPa, x2 = 0.1391	718.2	–
2000 kPa, x2 = 0.1907	719.85	–
2000 kPa, x2 = 0.4326	–	719.49
2000 kPa, x2 = 0.8711	766.21	–
2010 kPa, x2 = 0.1391	–	709.4
2010 kPa, x2 = 0.1907	–	710.86
2010 kPa, x2 = 0.3001	724.13	714.8
2010 kPa, x2 = 0.4326	729.1	–
2010 kPa, x2 = 0.6863	745.85	–
2020 kPa, x2 = 0.6863	–	736.08
2020 kPa, x2 = 0.8711	–	756.71
3000 kPa, x2 = 0.1391	719.08	–
3000 kPa, x2 = 0.4326	730	–
3000 kPa, x2 = 0.8711	–	757.64
3010 kPa, x2 = 0.1391	–	710.34
3010 kPa, x2 = 0.1907	720.73	711.79
3010 kPa, x2 = 0.4326	–	720.43
3010 kPa, x2 = 0.6863	746.75	737.03
3020 kPa, x2 = 0.3001	725.02	715.74
3020 kPa, x2 = 0.8711	767.09	–
4000 kPa, x2 = 0.3001	–	716.68
4010 kPa, x2 = 0.1391	719.94	–
4010 kPa, x2 = 0.1907	721.6	–
4010 kPa, x2 = 0.3001	725.89	–
4010 kPa, x2 = 0.4326	–	721.39
4010 kPa, x2 = 0.6863	747.62	737.97
4010 kPa, x2 = 0.8711	767.96	–
4020 kPa, x2 = 0.1391	–	711.27
4020 kPa, x2 = 0.1907	–	712.75
4020 kPa, x2 = 0.4326	730.9	–
4020 kPa, x2 = 0.8711	–	758.56
5000 kPa, x2 = 0.1391	–	712.19
5000 kPa, x2 = 0.3001	726.76	717.61
5000 kPa, x2 = 0.4326	–	722.33
5000 kPa, x2 = 0.8711	–	759.48
5010 kPa, x2 = 0.1391	720.8	–
5010 kPa, x2 = 0.1907	722.46	–
5020 kPa, x2 = 0.1907	–	713.66
5020 kPa, x2 = 0.4326	731.76	–
5020 kPa, x2 = 0.6863	748.51	738.91
5020 kPa, x2 = 0.8711	768.83	–
6000 kPa, x2 = 0.1391	721.67	713.11
6000 kPa, x2 = 0.4326	732.64	–
6000 kPa, x2 = 0.6863	749.38	–
6010 kPa, x2 = 0.1907	723.31	714.57
6010 kPa, x2 = 0.3001	–	718.54
6010 kPa, x2 = 0.4326	–	723.28
6010 kPa, x2 = 0.6863	–	739.85
6010 kPa, x2 = 0.8711	769.69	760.42
6020 kPa, x2 = 0.3001	727.63	–
7000 kPa, x2 = 0.1907	724.18	–
7000 kPa, x2 = 0.4326	–	724.2
7010 kPa, x2 = 0.1391	722.52	–
7010 kPa, x2 = 0.1907	–	715.47
7010 kPa, x2 = 0.3001	–	719.46
7010 kPa, x2 = 0.6863	750.25	–
7010 kPa, x2 = 0.8711	–	761.33
7020 kPa, x2 = 0.1391	–	714.02
7020 kPa, x2 = 0.3001	728.48	–
7020 kPa, x2 = 0.4326	733.49	–
7020 kPa, x2 = 0.6863	–	740.78
7020 kPa, x2 = 0.8711	770.55	–
8000 kPa, x2 = 0.1907	–	716.39
8000 kPa, x2 = 0.3001	729.32	–
8000 kPa, x2 = 0.6863	751.12	–
8010 kPa, x2 = 0.1391	723.35	714.92
8010 kPa, x2 = 0.1907	725.03	–
8010 kPa, x2 = 0.4326	734.37	725.12
8010 kPa, x2 = 0.8711	771.39	762.24
8020 kPa, x2 = 0.3001	–	720.36
8020 kPa, x2 = 0.6863	–	741.71
9000 kPa, x2 = 0.1391	–	715.8
9000 kPa, x2 = 0.1907	–	717.29
9000 kPa, x2 = 0.4326	–	726.05
9000 kPa, x2 = 0.6863	–	742.63
9000 kPa, x2 = 0.8711	–	763.15
9010 kPa, x2 = 0.1391	724.19	–
9010 kPa, x2 = 0.1907	725.85	–
9010 kPa, x2 = 0.3001	730.17	721.28
9010 kPa, x2 = 0.6863	751.97	–
9020 kPa, x2 = 0.4326	735.2	–
9020 kPa, x2 = 0.8711	772.23	–
10000 kPa, x2 = 0.1391	–	716.7
10000 kPa, x2 = 0.1907	–	718.16
10000 kPa, x2 = 0.3001	–	722.18
10000 kPa, x2 = 0.6863	752.81	–
10010 kPa, x2 = 0.1391	724.99	–
10010 kPa, x2 = 0.1907	726.66	–
10010 kPa, x2 = 0.3001	731	–
10010 kPa, x2 = 0.4326	736.06	–
10020 kPa, x2 = 0.8711	773.07	–
11000 kPa, x2 = 0.1907	727.49	–
11000 kPa, x2 = 0.3001	731.82	–
11000 kPa, x2 = 0.6863	753.64	–
11010 kPa, x2 = 0.1391	725.82	–
11010 kPa, x2 = 0.8711	773.9	–
11020 kPa, x2 = 0.4326	736.89	–
12000 kPa, x2 = 0.8711	774.72	–
12010 kPa, x2 = 0.1907	728.3	–
12010 kPa, x2 = 0.3001	732.64	–
12010 kPa, x2 = 0.4326	737.71	–
12010 kPa, x2 = 0.6863	754.47	–
12020 kPa, x2 = 0.1391	726.61	–
13000 kPa, x2 = 0.1391	727.41	–
13000 kPa, x2 = 0.1907	729.09	–
13000 kPa, x2 = 0.8711	775.51	–
13010 kPa, x2 = 0.3001	733.44	–
13010 kPa, x2 = 0.4326	738.53	–
13010 kPa, x2 = 0.6863	755.3	–
14000 kPa, x2 = 0.3001	734.23	–
14010 kPa, x2 = 0.1391	728.19	–
14010 kPa, x2 = 0.4326	739.32	–
14010 kPa, x2 = 0.6863	756.1	–
14020 kPa, x2 = 0.1907	729.89	–
14020 kPa, x2 = 0.8711	776.33	–
15000 kPa, x2 = 0.6863	756.89	–
15010 kPa, x2 = 0.1391	728.97	–
15010 kPa, x2 = 0.1907	730.66	–
15010 kPa, x2 = 0.3001	735.01	–
15010 kPa, x2 = 0.4326	740.1	–
15020 kPa, x2 = 0.8711	777.12	–
16000 kPa, x2 = 0.4326	740.87	–
16010 kPa, x2 = 0.1391	729.71	–
16010 kPa, x2 = 0.6863	757.68	–
16010 kPa, x2 = 0.8711	777.89	–
16020 kPa, x2 = 0.1907	731.41	–
16020 kPa, x2 = 0.3001	735.77	–
17000 kPa, x2 = 0.6863	758.44	–
17010 kPa, x2 = 0.1391	730.47	–
17020 kPa, x2 = 0.1907	732.18	–
17020 kPa, x2 = 0.3001	736.53	–
17020 kPa, x2 = 0.4326	741.63	–
17020 kPa, x2 = 0.8711	778.66	–
18000 kPa, x2 = 0.1391	731.21	–
18010 kPa, x2 = 0.3001	737.27	–
18010 kPa, x2 = 0.4326	742.38	–
18010 kPa, x2 = 0.6863	759.2	–
18010 kPa, x2 = 0.8711	779.44	–
18020 kPa, x2 = 0.1907	732.92	–
19000 kPa, x2 = 0.1391	731.93	–
19000 kPa, x2 = 0.1907	733.63	–
19000 kPa, x2 = 0.3001	738.01	–
19000 kPa, x2 = 0.6863	759.95	–
19020 kPa, x2 = 0.4326	743.13	–
19020 kPa, x2 = 0.8711	780.17	–
20000 kPa, x2 = 0.3001	738.71	–
20000 kPa, x2 = 0.4326	743.85	–
20010 kPa, x2 = 0.6863	760.69	–
20020 kPa, x2 = 0.1391	732.61	–
20020 kPa, x2 = 0.1907	734.34	–
20020 kPa, x2 = 0.8711	780.91	–

— the NIST ThermoML archive (doi:10.1021/acs.jced.8b00554)
